Measurements as given in PubChem BioAssay AID1224898.

Test system: Trichuris muris adults ex vivo, WormWatcher motility, 24 h
Experiment: motility loss in adult Trichuris muris, dose response, whole organism, ex vivo, WormWatcher (AID 1224898)

EC50 [µM]	SMILES
35	Cc1ccc(CN2C(=O)COCc3cc(Br)ccc32)cc1
26	O=C1COCc2cc(-c3cccnc3)ccc2N1Cc1ccc(C(F)(F)F)cc1
50	Cc1ccc(CN2C(=O)COCc3cc(-c4ccncc4)ccc32)cc1

The next lines start with the compound.

SMILES	EC50 [µM]
O=C1COCc2cc(-c3cccnc3)ccc2N1CC1CCCCC1	52
Cc1ccc(CN2C(=O)COCc3cc(-c4cccnc4)ccc32)cc1	57
